Consider ten molecules from ChEMBL document CHEMBL1201862, “PubChem BioAssay data set” (2004).

As a reminder, the AC50 is the concentration at which the activity in the assay is half-maximal.

Experiment [1] has as its target T1, Short transient receptor potential channel 4 (Mus musculus, UniProt Q9QUQ5).
T1 sequence (Q9QUQ5 whole entry): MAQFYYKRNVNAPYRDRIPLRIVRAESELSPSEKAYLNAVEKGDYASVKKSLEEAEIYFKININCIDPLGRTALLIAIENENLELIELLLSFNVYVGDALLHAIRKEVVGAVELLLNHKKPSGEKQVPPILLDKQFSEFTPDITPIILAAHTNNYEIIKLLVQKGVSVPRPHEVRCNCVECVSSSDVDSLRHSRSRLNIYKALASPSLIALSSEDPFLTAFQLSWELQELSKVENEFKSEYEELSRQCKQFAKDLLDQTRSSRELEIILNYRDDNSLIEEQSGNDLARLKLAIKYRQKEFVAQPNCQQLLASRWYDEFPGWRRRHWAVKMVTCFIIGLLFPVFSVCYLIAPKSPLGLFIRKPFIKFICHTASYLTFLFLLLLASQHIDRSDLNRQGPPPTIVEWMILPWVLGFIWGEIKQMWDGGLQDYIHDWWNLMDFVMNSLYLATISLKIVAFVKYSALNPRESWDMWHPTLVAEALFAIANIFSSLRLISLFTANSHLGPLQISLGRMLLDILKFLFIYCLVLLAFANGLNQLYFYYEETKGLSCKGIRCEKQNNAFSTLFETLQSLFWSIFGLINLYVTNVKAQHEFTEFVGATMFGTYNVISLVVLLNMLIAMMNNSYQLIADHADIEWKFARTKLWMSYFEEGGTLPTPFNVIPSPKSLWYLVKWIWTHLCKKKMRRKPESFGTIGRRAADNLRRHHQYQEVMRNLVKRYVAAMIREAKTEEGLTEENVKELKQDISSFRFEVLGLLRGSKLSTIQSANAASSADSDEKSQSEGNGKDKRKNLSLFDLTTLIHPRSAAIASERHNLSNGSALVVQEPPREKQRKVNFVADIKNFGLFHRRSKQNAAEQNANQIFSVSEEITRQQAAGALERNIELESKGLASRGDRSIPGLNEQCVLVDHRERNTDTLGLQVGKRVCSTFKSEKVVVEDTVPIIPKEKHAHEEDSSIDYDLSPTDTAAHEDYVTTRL
Briefly: block of DAMGO-driven TRPC4 calcium entry – cell-based, HEK293 TRPC4/mu-opioid, Fluo-4 calcium, dose response (AID 434942).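 Also: potency of inhibitors blocking the TRPC4 calcium response.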 It is filed as functional.

The target in experiment [2] is T2, Corticotropin-releasing factor receptor 2/Corticotropin-releasing factor-binding protein (Homo sapiens, UniProt P24387+Q13324).
T2 sequence (Q13324 whole entry): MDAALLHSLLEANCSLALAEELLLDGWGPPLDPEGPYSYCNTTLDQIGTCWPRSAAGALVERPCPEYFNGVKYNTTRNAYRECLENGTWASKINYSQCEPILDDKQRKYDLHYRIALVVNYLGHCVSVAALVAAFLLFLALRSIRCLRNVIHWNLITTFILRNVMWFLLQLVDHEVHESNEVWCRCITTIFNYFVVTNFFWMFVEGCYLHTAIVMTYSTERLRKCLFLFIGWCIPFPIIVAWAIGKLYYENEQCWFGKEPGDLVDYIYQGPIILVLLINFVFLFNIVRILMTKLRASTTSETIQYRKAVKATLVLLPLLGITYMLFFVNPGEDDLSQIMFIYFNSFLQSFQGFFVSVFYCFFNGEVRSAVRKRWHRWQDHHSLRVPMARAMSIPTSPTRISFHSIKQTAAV
T2 sequence (P24387 whole entry): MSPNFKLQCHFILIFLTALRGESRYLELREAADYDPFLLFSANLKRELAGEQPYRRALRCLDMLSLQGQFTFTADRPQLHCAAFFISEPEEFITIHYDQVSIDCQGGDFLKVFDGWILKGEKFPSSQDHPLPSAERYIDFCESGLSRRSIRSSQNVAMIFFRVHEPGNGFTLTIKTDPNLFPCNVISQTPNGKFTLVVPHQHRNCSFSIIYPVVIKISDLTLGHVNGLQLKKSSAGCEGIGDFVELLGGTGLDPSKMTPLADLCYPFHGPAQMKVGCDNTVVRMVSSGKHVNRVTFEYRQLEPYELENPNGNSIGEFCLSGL
As to the kind of experiment: Dose Response confirmation of uHTS hits for small molecule antagonists of the CRF-binding protein and CRF-R2 receptor complex. Format: functional. The note with it: read-out: IC50_Mean.

In experiment [3] the target is T2, Corticotropin-releasing factor receptor 2/Corticotropin-releasing factor-binding protein. As to the kind of experiment: activators of CRF receptor 2 with binding protein – uHTS hits, confirmation (AID 602473). It is filed as functional. Particulars: read-out: EC50_Mean.
The target of experiment [4] is FAD-linked sulfhydryl oxidase ALR (Homo sapiens, UniProt P55789). As to the kind of experiment: ALR-catalysed DTT oxidation blockers – biochemical, H2O2 detection, luminescence, cherry-pick, dose response (AID 493248).
Chain of FAD-linked sulfhydryl oxidase ALR (P55789 whole entry): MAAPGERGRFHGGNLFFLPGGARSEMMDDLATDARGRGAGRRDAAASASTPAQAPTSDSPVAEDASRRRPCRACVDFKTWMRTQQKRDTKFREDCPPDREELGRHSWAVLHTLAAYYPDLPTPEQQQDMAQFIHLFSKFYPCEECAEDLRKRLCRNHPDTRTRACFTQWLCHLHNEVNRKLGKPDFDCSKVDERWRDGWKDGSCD
For experiment [5], the target named is Induced myeloid leukemia cell differentiation protein Mcl-1 (Homo sapiens, UniProt Q07820). Format: functional.
Chain of Induced myeloid leukemia cell differentiation protein Mcl-1 (Q07820 whole entry): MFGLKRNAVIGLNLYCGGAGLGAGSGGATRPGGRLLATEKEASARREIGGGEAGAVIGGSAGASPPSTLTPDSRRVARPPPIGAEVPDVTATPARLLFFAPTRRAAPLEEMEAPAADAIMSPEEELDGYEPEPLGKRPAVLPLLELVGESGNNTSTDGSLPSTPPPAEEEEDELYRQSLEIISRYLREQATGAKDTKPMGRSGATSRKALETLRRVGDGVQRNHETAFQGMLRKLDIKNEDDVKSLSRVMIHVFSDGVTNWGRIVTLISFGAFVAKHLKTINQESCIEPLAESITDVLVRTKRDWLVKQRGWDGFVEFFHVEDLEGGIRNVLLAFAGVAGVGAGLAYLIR
In another experiment the target is Genome polyprotein (dengue virus type 2, UniProt P29990). As to the kind of experiment: flavivirus cap methylation enzyme inhibition – biochemical, confirmation dose response, primary screen (AID 588689). Format: functional.
Chain of Genome polyprotein (P29990 2492-3391 limits assumed): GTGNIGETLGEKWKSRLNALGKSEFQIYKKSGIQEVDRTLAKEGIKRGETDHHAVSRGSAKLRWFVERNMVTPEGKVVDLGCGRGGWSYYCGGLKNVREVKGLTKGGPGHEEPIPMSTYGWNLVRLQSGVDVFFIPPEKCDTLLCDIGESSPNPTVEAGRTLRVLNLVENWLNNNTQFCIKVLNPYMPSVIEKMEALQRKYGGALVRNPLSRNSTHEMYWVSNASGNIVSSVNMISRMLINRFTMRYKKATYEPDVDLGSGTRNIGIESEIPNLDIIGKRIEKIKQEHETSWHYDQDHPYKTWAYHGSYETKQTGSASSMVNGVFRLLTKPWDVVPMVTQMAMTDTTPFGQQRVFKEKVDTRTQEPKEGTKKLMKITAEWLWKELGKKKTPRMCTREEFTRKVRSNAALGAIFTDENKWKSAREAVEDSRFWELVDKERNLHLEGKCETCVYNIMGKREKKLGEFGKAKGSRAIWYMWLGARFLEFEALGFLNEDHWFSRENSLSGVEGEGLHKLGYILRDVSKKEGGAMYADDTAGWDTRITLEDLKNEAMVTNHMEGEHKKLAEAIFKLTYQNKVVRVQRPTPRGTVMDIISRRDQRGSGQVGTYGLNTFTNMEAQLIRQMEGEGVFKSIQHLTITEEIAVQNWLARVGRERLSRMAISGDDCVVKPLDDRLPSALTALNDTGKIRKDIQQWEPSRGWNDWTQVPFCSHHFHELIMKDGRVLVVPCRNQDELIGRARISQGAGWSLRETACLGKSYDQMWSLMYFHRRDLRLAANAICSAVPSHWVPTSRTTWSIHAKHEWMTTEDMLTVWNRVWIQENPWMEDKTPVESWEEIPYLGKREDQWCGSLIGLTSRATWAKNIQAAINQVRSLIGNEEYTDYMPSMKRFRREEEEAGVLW
The target in a further experiment is Nonstructural protein 1 (Influenza A virus, UniProt Q194T2). Format: functional, Influenza A virus (A/California/07/2009(H1N1)).
Chain of Nonstructural protein 1 (Q194T2 whole entry): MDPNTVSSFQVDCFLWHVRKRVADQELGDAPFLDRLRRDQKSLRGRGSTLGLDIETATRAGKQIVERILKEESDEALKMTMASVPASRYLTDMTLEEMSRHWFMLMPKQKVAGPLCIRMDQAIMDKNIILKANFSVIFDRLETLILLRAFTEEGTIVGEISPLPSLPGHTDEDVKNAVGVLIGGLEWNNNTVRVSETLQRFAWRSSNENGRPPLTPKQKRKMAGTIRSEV
The next experiment concerns the target T3, Aminopeptidase N (Plasmodium falciparum FcB1/Columbia, UniProt O96935).
T3 sequence (O96935 whole entry): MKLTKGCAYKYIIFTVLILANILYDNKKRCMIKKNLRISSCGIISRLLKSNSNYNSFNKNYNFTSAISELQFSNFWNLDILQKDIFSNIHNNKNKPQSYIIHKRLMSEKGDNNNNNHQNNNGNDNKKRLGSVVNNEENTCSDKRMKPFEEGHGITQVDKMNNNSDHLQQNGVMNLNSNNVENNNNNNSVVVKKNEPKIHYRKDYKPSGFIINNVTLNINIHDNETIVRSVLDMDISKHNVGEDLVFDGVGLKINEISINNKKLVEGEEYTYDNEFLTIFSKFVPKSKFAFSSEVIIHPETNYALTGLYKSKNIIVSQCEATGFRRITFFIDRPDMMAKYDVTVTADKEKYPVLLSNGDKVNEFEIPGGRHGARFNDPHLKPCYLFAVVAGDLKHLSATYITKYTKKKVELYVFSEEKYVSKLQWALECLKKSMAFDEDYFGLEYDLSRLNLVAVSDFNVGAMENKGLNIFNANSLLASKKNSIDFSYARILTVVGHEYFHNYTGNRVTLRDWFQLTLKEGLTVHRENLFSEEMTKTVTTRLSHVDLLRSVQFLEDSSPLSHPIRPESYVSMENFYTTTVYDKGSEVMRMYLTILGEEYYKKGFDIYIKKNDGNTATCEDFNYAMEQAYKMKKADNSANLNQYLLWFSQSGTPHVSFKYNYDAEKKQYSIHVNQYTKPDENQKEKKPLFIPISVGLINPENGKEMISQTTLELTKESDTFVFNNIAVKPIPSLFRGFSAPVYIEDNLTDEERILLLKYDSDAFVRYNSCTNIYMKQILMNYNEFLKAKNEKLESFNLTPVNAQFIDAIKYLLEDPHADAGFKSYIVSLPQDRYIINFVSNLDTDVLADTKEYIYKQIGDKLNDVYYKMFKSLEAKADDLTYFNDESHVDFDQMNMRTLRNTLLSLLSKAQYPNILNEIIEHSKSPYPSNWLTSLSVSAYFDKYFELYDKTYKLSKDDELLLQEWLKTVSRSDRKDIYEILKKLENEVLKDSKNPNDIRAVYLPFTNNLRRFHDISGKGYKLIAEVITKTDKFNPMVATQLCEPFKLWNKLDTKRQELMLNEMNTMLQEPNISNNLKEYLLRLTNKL
As to the kind of experiment: malaria alanyl aminopeptidase activity blockers – biochemical, fluorogenic H-Leu-NHMec substrate, 1536-well (AID 1445). Details: species or system Plasmodium falciparum 3D7, 3D7.

In the next experiment the target is T4, Leucine aminopeptidase (Plasmodium falciparum 3D7, UniProt Q8IL11).
T4 sequence (Q8IL11 whole entry): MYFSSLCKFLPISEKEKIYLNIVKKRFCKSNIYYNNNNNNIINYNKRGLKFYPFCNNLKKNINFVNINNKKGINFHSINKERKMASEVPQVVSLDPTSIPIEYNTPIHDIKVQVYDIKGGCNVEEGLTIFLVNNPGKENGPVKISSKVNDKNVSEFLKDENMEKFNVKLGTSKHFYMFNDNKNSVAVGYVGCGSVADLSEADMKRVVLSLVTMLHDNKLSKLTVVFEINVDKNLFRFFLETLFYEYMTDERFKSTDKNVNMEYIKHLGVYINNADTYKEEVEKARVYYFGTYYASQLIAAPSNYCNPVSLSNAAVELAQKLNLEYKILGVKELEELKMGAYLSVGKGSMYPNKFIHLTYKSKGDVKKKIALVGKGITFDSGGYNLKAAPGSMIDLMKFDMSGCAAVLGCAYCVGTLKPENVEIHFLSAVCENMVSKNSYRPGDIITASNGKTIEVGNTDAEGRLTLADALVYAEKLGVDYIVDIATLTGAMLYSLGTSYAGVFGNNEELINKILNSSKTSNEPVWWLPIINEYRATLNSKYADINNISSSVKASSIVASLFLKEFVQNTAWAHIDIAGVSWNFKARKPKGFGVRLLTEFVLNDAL
Briefly: P. falciparum M17LAP inhibitors, primary screen, biochemical, fluorogenic H-Leu-NHMec substrate, 1536-well (AID 1619). It is filed as functional.

Experiment [6] concerns the target T5, Rac GTPase-activating protein 1 (Homo sapiens, UniProt Q9H0H5).
T5 sequence (Q9H0H5 whole entry): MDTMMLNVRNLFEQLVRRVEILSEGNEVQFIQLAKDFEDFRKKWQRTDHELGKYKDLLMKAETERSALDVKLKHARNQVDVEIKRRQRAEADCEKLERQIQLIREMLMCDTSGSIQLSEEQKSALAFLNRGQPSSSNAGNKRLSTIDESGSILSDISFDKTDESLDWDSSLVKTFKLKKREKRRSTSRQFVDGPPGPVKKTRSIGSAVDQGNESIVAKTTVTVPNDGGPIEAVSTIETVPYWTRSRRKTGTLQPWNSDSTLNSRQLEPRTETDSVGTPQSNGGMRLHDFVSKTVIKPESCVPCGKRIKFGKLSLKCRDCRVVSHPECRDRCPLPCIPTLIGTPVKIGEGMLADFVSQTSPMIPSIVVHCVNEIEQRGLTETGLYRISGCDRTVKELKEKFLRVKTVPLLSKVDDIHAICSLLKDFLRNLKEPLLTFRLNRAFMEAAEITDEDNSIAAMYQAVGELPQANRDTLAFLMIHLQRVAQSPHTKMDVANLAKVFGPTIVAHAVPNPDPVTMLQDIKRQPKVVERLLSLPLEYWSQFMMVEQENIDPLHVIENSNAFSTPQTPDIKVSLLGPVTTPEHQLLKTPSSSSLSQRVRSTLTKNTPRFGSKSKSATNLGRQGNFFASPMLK
Briefly: blockers of MgcRacGAP-driven Rac1 GTP hydrolysis – biochemical, ADP Hunter fluorescence, primary and confirmatory, confirmation (AID 624330). It is filed as functional.

Active and inactive are the calls of the source.

Turning to `COc1ccccc1N(C(=O)c1snc(C(N)=O)c1N)C(C(=O)NCc1ccccc1)c1ccc(C)o1` (configuration not stated), the EC50 in [1] was 0.944 µM (active).

As for `c1ccc2c(c1)nnn2-c1ncnc2sc3c(c12)CCCC3`, the IC50 in [2] was > 47.1 µM (inactive). In addition, the results for the EC50 in experiment [3] and in [1] were > 53 µM (inactive) and 6.68 µM (active), respectively.

For `CCc1cc(C(=O)c2ccc(OC)cc2)c(NC(=O)CC(C)(C)CC(=O)O)s1`, in [4], the AC50 is 4.26 µM (active).

As to `CCN(CC)c1ccc(NC(=O)CN2CCN(CC(=O)Nc3ccccc3F)CC2)cc1`, in experiment [4], the AC50 is 1.18 µM (active).

Take `COc1ccc(NC(=S)NNc2ccc(S(=O)(=O)Nc3ccccc3C(=O)O)cc2[N+](=O)[O-])cc1`: the IC50 was 3.37 µM (not active) in [5]; 15.8 µM (active) at Genome polyprotein; 31.7 µM (active) at Nonstructural protein 1; 4.17 µM (active) at Aminopeptidase N; 4.33 µM (active) on Leucine aminopeptidase.

On to `CC(NC(=O)c1cccc(N(C)C)c1)c1ccc(-n2ccnc2)cc1` (configuration not stated), for which, in experiment [4], the AC50 was 9.59 µM (active).

Turning to `O=C(Nc1ccc(O)cc1)c1ccc(C(=O)c2ccccc2)o1`, in experiment [6], the IC50 was 19.5 µM (active). Besides, the AC50 in experiment [4] was 2.25 µM (active).

Take `CC(CN(C)C)CN1c2ccccc2Sc2ccccc21` (configuration not stated): the AC50 in experiment [4] is 1.25 µM (active).

Consider `COc1ccccc1CNCc1ccc(OC)c2ccccc12`, for which the EC50 in [1] is 5.31 µM (active).

On to `C/C(=N/NS(=O)(=O)c1ccc(Br)cc1)c1ccc(C)o1`, for which the AC50 in [4] was 15.4 µM (active).
